Results: patent US7074789B2, “Kinase inhibitors” (Amgen Inc., priority 1999, dated 2006)

Tests used:
Format in all cases: biochemical
Lck = biological target: T1, Lck (Homo sapiens, UniProt P06239); experiment: Kinase inhibition assay (33P transfer), Lck; settings: Table 3; read-out: Lck-1
T1 construct: Kinases are expressed as either kinase domains or full length constructs; made in house
Method in brief: (§1)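 Kinase domains or full-length kinases, GST- or His-tagged and expressed in E. coli or baculovirus/High Five cells, transferred 33PO4 from ATP onto plate-bound poly(Glu,Tyr) 4:1 or poly(Arg,Ser) 3:1. After incubation, plates were washed with 0.5% phosphoric acid and counted by liquid scintillation.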

Lyn = biological target: T2, Lyn (Homo sapiens, UniProt P07948); experiment: Kinase inhibition assay (33P transfer), Lyn; settings: Table 6, Lyn-1 kinase inhibition class
T2 construct: Kinases are expressed as either kinase domains or full length constructs; made in house
From the text: (§2) The inhibitor compounds described herein are screened in the following manner. Kinases suitable for use in the following protocol to determine kinase activity of the compounds described herein include, -but are not limited to: Lck, Lyn, Src, Fyn, Syk, Zap-70, Itk, Tec, Btk, EGFR, ErbB2, Kdr, Flt-1, Flt-3, Tek, c-Met, InsR, and AKT.
(§3) Kinases are expressed as either kinase domains or full length constructs fused to glutathione S-transferase (GST) or polyHistidine tagged fusion proteins in either E. colior Baculovirus-High Five expression systems. They are purified to near homogeneity by affinity chromatography essentially as previously described (Lehr et al., 1996; Gish et al., 1995). In some instances, kinases are co-expressed or mixed with purified or partially purified regulatory polypeptides prior to measurement of activity.
(§4) Kinase activity and inhibition are measured essentially by established protocols (Braunwalder et al., 1996). Briefly, The transfer of ^33PO4 from ATP to the synthetic substrates poly(Glu, Tyr) 4:1 or poly(Arg, Ser) 3:1 attached to the bioactive surface of microtiter plates serves as the basis to evaluate enzyme activity. After an incubation period, the amount of phosphate transferred is measured by first washing the plate with 0.5% phosphoric acid, adding liquid scintillant, and then counting in a liquid scintillation detector. The IC50 is determined by the concentration of compound that causes a 50% reduction in the amount of […] incorporated onto the substrate bound to the plate.

Src = biological target: T3, Src (Homo sapiens, UniProt P12931); experiment: Kinase inhibition assay (33P transfer), Src; settings: Table 6, Src-1 kinase inhibition class
T3 construct: Kinases are expressed as either kinase domains or full length constructs; made in house
From the text: as §2, §3, §4

Fyn = biological target: T4, Fyn (Homo sapiens, UniProt P06241); experiment: Kinase inhibition assay (33P transfer), Fyn; settings: read-out: Fyn-1
T4 construct: Kinases are expressed as either kinase domains or full length constructs; made in house
From the text: as §2, §3, §4

Zap-70 = biological target: T5, Zap-70 (Homo sapiens, UniProt P43403); experiment: Kinase inhibition assay (33P transfer), Zap-70; settings: Table 3; read-out: Zap-1
T5 construct: Kinases are expressed as either kinase domains or full length constructs; made in house
T5 sequence (P43403 1-619): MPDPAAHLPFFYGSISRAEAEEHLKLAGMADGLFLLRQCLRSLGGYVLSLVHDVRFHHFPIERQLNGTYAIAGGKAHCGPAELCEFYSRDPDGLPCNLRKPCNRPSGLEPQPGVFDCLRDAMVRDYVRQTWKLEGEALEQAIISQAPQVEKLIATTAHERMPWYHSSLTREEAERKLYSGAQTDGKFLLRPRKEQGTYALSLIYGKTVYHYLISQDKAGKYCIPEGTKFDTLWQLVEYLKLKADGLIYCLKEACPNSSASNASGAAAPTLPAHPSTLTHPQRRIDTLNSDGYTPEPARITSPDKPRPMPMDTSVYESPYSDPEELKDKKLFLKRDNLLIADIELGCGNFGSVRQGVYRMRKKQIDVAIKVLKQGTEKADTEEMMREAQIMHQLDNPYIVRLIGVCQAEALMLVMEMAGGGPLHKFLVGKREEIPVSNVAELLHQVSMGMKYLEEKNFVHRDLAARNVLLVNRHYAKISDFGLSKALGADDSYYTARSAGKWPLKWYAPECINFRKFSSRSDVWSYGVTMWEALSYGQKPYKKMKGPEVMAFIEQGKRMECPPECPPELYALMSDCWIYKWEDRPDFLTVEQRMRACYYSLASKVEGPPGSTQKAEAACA
Method in brief: as §1

Itk = biological target: T6, Itk (Homo sapiens, UniProt Q08881); experiment: Kinase inhibition assay (33P transfer), Itk; settings: Table 3; read-out: Itk-1
T6 construct: Kinases are expressed as either kinase domains or full length constructs; made in house
T6 sequence (Q08881 1-620): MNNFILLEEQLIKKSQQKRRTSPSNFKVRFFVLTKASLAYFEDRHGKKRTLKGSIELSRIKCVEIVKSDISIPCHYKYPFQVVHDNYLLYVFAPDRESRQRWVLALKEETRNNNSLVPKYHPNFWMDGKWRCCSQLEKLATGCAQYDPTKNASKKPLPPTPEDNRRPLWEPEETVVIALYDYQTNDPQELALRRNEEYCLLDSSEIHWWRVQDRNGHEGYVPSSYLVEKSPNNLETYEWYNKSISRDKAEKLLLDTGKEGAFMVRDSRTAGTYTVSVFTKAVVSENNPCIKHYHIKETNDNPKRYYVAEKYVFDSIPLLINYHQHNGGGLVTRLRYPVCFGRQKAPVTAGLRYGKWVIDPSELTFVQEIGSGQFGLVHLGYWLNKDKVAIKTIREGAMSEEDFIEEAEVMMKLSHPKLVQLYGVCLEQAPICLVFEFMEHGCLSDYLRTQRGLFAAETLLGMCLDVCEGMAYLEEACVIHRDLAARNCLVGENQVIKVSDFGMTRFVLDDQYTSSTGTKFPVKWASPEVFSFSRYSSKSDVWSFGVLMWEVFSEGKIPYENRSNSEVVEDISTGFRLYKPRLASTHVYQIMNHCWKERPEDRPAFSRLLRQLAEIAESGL
Method in brief: (§5)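 Kinase domains or full-length enzymes, GST- or polyHis-tagged, were expressed in E. coli or baculovirus High Five cells and affinity-purified. Transfer of 33PO4 from ATP onto plate-bound poly(Glu,Tyr) 4:1 or poly(Arg,Ser) 3:1 was counted by liquid scintillation after a 0.5% phosphoric acid wash. IC50 = concentration halving incorporation.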

EGFR = biological target: T7, EGFR (Homo sapiens, UniProt P00533); experiment: Kinase inhibition assay (33P transfer), EGFR; settings: Table 2, kinase inhibition class; read-out: EGFR-1
T7 construct: Kinases are expressed as either kinase domains or full length constructs; made in house
Method in brief: as §5

Kdr = biological target: T8, Kdr (Homo sapiens, UniProt P35968); experiment: Kinase inhibition assay (33P transfer), Kdr; settings: Table 3; read-out: KDR-1
T8 construct: Kinases are expressed as either kinase domains or full length constructs; made in house
Method in brief: as §1

Flt-1 = biological target: T9, Flt-1 (Homo sapiens, UniProt P17948); experiment: Kinase inhibition assay (33P transfer), Flt-1
T9 construct: Kinases are expressed as either kinase domains or full length constructs; made in house
From the text: as §2, §3, §4

Tek = biological target: T10, Tek (Homo sapiens, UniProt Q02763); experiment: Kinase inhibition assay (33P transfer), Tek; settings: read-out: Tek-1
T10 construct: Kinases are expressed as either kinase domains or full length constructs; made in house
Method in brief: as §5

c-Met = biological target: T11, c-Met (Homo sapiens, UniProt P08581); experiment: Kinase inhibition assay (33P transfer), c-Met; settings: Table 2, kinase inhibition class; read-out: Met-1
T11 construct: Kinases are expressed as either kinase domains or full length constructs; made in house
Method in brief: as §5

AKT = biological target: T12, AKT (Homo sapiens, UniProt Q9Y243); experiment: Kinase inhibition assay (33P transfer), AKT; settings: Table 2, kinase inhibition class; read-out: AKT3-1
T12 construct: Kinases are expressed as either kinase domains or full length constructs; made in house
Method in brief: as §1

PDGFRB = biological target: T13, PDGFRB (Homo sapiens, UniProt P09619); experiment: Kinase inhibition assay (33P transfer), PDGFRB; settings: read-out: PDGFRB-1
T13 construct: Kinases are expressed as either kinase domains or full length constructs; made in house

Hck-1 = biological target: T14, Hck-1 (Homo sapiens, UniProt P08631); experiment: Kinase inhibition assay (33P transfer), Hck; settings: Table 6, Hck-1 kinase inhibition class
T14 construct: Kinases are expressed as either kinase domains or full length constructs; made in house

ErbB4 = biological target: T15, ErbB4 (Homo sapiens, UniProt Q15303); experiment: Kinase inhibition assay (33P transfer), ErbB4; settings: read-out: ErbB4-1
T15 construct: Kinases are expressed as either kinase domains or full length constructs; made in house

FGFR1 = biological target: T16, FGFR1 (Homo sapiens, UniProt P11362); experiment: Kinase inhibition assay (33P transfer), FGFR1; settings: read-out: FGFR1-1
T16 construct: Kinases are expressed as either kinase domains or full length constructs; made in house

T12 sequence (Q9Y243 whole entry, the tested form may be a part): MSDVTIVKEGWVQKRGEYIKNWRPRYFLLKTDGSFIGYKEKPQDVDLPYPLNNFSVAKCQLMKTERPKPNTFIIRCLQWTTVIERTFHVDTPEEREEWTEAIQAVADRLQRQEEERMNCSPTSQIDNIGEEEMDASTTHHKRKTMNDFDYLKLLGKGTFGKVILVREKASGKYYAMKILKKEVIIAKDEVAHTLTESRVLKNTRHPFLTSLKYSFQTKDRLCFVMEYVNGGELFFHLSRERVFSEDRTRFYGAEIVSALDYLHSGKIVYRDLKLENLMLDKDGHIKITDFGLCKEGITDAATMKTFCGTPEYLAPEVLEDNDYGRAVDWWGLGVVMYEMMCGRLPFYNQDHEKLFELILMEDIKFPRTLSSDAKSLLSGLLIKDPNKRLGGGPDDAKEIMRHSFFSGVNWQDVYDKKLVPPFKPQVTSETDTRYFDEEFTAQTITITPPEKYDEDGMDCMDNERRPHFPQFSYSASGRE
T13 sequence (P09619 33-1106, species assumed): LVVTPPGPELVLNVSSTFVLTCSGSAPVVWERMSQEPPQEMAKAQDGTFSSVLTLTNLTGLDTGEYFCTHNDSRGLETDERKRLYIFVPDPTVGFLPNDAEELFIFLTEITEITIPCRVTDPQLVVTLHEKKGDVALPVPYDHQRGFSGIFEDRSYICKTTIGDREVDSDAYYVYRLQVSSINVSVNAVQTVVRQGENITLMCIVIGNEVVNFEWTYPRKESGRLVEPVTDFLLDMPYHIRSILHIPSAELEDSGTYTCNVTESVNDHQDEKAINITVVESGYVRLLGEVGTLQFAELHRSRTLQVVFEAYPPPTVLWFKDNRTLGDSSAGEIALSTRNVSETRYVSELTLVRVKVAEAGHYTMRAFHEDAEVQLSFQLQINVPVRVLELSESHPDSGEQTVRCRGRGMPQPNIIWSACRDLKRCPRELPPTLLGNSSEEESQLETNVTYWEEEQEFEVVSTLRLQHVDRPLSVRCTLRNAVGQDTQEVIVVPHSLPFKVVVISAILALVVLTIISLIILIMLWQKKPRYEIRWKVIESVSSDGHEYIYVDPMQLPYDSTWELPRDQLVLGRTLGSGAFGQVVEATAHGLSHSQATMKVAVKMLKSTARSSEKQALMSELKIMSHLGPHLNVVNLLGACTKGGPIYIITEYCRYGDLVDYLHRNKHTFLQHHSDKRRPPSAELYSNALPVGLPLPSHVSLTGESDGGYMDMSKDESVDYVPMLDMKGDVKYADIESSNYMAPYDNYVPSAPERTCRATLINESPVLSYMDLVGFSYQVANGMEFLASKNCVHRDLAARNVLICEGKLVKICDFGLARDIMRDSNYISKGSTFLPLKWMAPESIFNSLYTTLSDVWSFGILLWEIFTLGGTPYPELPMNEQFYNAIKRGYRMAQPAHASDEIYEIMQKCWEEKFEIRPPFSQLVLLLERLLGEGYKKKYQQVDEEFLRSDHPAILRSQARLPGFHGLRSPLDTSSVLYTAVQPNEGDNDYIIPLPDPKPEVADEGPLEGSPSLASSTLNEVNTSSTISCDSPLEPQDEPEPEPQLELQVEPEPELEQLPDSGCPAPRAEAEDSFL
T11 sequence (P08581 25-1390): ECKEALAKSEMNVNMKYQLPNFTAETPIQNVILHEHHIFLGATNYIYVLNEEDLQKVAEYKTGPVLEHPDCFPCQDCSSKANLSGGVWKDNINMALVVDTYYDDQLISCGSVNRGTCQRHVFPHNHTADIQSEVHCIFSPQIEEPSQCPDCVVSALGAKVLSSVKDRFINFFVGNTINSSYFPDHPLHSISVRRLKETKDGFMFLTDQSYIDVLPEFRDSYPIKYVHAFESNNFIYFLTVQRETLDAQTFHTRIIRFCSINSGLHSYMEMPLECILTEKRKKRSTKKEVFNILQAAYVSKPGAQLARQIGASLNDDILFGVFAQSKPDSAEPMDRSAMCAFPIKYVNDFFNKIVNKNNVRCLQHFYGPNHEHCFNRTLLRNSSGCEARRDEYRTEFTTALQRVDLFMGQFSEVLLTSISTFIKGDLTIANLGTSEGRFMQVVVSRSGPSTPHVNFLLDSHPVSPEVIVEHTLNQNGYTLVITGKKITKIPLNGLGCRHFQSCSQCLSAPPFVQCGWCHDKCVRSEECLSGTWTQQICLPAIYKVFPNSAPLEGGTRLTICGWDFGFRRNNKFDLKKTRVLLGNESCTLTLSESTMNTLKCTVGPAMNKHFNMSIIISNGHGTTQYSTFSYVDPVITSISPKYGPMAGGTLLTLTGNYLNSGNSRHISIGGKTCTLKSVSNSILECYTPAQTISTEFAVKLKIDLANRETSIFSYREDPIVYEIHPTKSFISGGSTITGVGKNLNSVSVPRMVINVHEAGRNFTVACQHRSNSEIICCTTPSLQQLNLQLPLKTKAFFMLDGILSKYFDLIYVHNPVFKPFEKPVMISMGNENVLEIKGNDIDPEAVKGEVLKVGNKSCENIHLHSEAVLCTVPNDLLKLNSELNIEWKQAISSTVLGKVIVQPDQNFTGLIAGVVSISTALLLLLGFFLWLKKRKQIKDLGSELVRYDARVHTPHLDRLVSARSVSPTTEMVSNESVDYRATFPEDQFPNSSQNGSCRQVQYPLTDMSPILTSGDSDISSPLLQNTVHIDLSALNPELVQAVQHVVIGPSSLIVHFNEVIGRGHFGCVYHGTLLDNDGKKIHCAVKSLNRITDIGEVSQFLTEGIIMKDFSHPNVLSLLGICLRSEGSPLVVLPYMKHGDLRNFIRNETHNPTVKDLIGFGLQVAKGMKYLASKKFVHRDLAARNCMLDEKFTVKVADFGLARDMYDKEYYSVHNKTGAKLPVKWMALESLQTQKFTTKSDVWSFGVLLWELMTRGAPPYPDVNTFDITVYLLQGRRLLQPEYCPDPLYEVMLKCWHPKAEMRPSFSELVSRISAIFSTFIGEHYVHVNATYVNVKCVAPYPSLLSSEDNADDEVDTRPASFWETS
T9 sequence (P17948 27-1338, species assumed): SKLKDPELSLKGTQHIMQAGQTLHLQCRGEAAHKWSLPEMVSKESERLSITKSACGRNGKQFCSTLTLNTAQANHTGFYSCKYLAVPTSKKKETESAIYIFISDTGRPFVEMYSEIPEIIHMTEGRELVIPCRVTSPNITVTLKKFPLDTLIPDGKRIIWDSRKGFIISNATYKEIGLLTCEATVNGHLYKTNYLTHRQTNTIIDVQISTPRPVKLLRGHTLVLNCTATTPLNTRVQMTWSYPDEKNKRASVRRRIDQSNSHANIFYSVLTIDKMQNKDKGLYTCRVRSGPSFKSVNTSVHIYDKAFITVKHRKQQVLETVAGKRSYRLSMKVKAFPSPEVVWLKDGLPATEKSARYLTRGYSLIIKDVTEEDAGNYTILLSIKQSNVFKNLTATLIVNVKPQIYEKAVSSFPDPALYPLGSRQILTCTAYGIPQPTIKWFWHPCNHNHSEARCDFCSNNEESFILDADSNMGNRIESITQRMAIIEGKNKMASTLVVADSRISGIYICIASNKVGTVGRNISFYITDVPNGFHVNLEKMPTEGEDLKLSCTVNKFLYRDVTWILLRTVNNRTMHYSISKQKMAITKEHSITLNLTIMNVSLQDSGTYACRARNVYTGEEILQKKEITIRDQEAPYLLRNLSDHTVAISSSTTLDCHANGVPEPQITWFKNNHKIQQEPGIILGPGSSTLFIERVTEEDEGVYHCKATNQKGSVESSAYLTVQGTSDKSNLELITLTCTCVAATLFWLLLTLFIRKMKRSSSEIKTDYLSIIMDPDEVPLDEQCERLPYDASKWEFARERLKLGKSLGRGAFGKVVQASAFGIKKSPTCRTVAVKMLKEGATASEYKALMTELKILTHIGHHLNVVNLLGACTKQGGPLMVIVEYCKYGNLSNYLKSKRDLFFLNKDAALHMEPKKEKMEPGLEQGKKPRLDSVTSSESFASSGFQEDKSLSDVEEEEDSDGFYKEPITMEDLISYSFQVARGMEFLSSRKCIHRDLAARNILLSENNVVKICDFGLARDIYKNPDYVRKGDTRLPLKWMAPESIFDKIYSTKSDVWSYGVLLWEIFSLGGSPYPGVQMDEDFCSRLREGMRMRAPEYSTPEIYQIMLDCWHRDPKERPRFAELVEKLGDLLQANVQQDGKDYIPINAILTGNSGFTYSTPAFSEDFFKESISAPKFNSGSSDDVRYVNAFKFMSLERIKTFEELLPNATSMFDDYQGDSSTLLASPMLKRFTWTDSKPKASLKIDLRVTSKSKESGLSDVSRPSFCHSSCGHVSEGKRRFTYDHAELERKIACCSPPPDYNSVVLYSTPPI
T3 sequence (P12931 whole entry, species assumed, the tested form may be a part): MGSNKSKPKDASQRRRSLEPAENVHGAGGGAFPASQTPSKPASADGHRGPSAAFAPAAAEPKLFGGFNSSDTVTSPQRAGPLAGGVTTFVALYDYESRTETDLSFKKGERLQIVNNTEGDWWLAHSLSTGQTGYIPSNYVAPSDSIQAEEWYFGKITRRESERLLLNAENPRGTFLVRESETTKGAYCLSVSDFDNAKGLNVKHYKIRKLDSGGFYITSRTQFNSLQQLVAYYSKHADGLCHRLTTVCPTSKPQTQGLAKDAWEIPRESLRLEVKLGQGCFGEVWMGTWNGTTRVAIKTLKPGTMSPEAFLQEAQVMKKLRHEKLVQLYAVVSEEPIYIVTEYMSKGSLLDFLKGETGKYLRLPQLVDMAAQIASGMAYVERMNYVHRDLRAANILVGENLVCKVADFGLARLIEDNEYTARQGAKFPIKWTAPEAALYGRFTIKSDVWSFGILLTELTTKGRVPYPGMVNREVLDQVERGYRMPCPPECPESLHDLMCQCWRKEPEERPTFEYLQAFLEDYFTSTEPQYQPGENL

Row | Compound | IC50 (Lck) [µM] | IC50 (Lyn) [µM] | IC50 (Src) [µM] | IC50 (Fyn) [µM] | IC50 (Zap-70) [µM] | IC50 (Itk) [µM] | IC50 (EGFR) [µM] | IC50 (Kdr) [µM] | IC50 (Flt-1) [µM] | IC50 (Tek) [µM] | IC50 (c-Met) [µM] | IC50 (AKT) [µM] | IC50 (PDGFRB) [µM] | IC50 (Hck-1) [µM] | IC50 (ErbB4) [µM] | IC50 (FGFR1) [µM]
1 | Nc1nc2ccccc2n1-c1ncnc(Nc2cccc(-c3cnco3)c2)n1 [Compound 439] | 1.08 to 6.48 | 1.08 to 6.48 | 1.08 to 6.48 | 1.08 to 6.48 | 6.48 to 9.45 | 1.08 to 6.48 | 1.08 to 6.48 | < 1.08 | < 1.08 | 1.08 to 6.48 | 1.08 to 6.48 | 1.08 to 6.48 | < 1.08 | 1.08 to 6.48 | 1.08 to 6.48 | < 1.08
2 | COc1cc(Nc2ncnc(-n3ccc4cc(F)ccc43)n2)cc(OC)c1OC [Compound 441] | 6.07 to 8.85 | > 11.4 | > 11.4 | 1.01 to 6.07 | > 11.4 | > 11.4 | > 11.4 | < 1.01 | 1.01 to 6.07 | > 11.4 | > 11.4 | > 11.4 | < 1.01 | > 11.4 | > 11.4 | > 11.4
3 | OCc1ccc(Nc2ncnc(Nc3cc(-c4ccco4)n[nH]3)n2)cc1 [Compound 430] | 1.14 to 6.87 | 1.14 to 6.87 | 1.14 to 6.87 | 1.14 to 6.87 | > 12.9 | 1.14 to 6.87 | 1.14 to 6.87 | < 1.14 | 1.14 to 6.87 | 1.14 to 6.87 | 1.14 to 6.87 | 1.14 to 6.87 | 1.14 to 6.87 | > 12.9 | 1.14 to 6.87 | < 1.14

The next lines start with the values.

Row | IC50 (Lck) [µM] | IC50 (Lyn) [µM] | IC50 (Src) [µM] | IC50 (Fyn) [µM] | IC50 (Zap-70) [µM] | IC50 (Itk) [µM] | IC50 (EGFR) [µM] | IC50 (Kdr) [µM] | IC50 (Flt-1) [µM] | IC50 (Tek) [µM] | IC50 (c-Met) [µM] | IC50 (AKT) [µM] | IC50 (PDGFRB) [µM] | IC50 (Hck-1) [µM] | IC50 (ErbB4) [µM] | IC50 (FGFR1) [µM] | Compound
4 | < 1.01 | < 1.01 | > 11.4 | > 11.4 | > 11.4 | > 11.4 | > 11.4 | 1.01 to 6.08 | > 11.4 | > 11.4 | > 11.4 | > 11.4 | 6.08 to 8.87 | > 11.4 | > 11.4 | > 11.4 | C=CCNc1cc(-c2ncnc(Nc3cc(OC)c(OC)c(OC)c3)n2)ccn1 [Compound 412]
5 | 0.785 to 4.71 | 0.785 to 4.71 | 4.71 to 6.87 | 0.785 to 4.71 | > 8.83 | 0.785 to 4.71 | 6.87 to 8.83 | < 0.785 | < 0.785 | > 8.83 | > 8.83 | 6.87 to 8.83 | < 0.785 | 6.87 to 8.83 | > 8.83 | < 0.785 | COc1cc(Nc2ncnc(-n3c(Nc4ccc5[nH]ncc5c4)nc4ccccc43)n2)cc(OC)c1OC [Compound 404]
